Consider seven compounds from patent US20230109801A1 (Blue Oak Pharmaceuticals, Inc., priority 2020, published 2023).

Structures can show the parent of a compound that is named as a salt.

The test deals with mice. The test is described as follows: SmartCube in vivo neuropharmacological behavioral assay. The following applies: for minimal effective dose: Mus musculus, ip, dose having 50% or more total activity in SmartCube, i.p., read-out: MED (minimal effective dose); for AD: antidepressant, percent probability / AG: analgesic, percent probability / AP: antipsychotic, percent probability / AX: anxiolytic, percent probability / CE: cognitive enhancer, percent probability / HA: hallucinogenic, percent probability / MS: mood stabilizer, percent probability / PS, percent probability / SD: sedative hypnotic, percent probability / SE: side effects, percent probability / UN: uncharacterized CNS activity, percent probability / XG: anxiogenic, percent probability: SmartCube, i.p. 15 min before test, at the MED. How it is done:
The compounds were evaluated for their CNS related properties (e.g., the treatment, prevention or diagnosis of CNS or CNS-related disorders and/or amelioration of symptoms) using neuropharmacological screening methods described in S. L. Roberts et al., Front. Neurosci. 2011, 5:103 (hereinafter referred to as “Roberts,” the contents of which are incorporated herein by reference in their entirety).
According to Roberts, intact systems are useful in detecting improvement in disease-relevant endpoints, because psychiatric diseases generally result from disorders of cell-cell communication or circuitry. The endpoints are typically behavioral in nature, often requiring human observation and interpretation. In order to test multiple compounds for behavioral effects relevant to neurological and psychiatric diseases and disorders, PsychoGenics, Inc. (Paramus, N.J. “PGI”) developed SmartCube®, an automated system in which behaviors of compound-treated mice are captured by digital video and analyzed with computer algorithms to facilitate testing of multiple compounds for behavioral effects relevant to psychiatric disease. (D. Brunner et al., Drug Discov. Today 2002, 7:S107-S112; Alexandrov et al., Eur. J. Pharmacol. 2015, 753:127-134; the contents of each of which are incorporated herein by reference in their entirety).
The SmartCube® system is described in Example 2.2 of U.S. Pat. No. 9,758,529 and Example 289 of WIPO Publication No. WO2018/023070, the contents of each of which are incorporated herein by reference in their entirety.
According to the present disclosure, compounds identified may be evaluated using the SmartCube® system. The results of such analysis correlate certain patterns or combinations of behaviors to CNS effects along a percent probability scale of 0-100 where zero (O) reflects the limit of quantitation (LOQ).
The compounds of the present disclosure were evaluated for their CNS related properties (e.g., the treatment, prevention or diagnosis of CNS or CNS-related disorders and/or amelioration of symptoms) using neuropharmacological screening methods described in S. L. Roberts et al., Front. Neurosci. 2011, 5:103 (hereinafter referred to as “Roberts,” the contents of which are incorporated herein by reference in their entirety).
The SmartCube® system described herein was utilized to compare the behavioral signature of a test compound to a database of behavioral signatures obtained using a large set of diverse reference compounds (including but not limited to antipsychotics, anxiolytics, antidepressants and bipolar disorder medicine), thereby predicting the neuropharmacological effects of a test compound by similarity to major classes of compounds. It produces an activity signature indicating the probability that the activity of the test compound at the administered dose matches a given class of neuropharmacological agents. The test compound is simultaneously compared against multiple classes of agents; thus, a separate probability is generated for each behavioral effect measured (such as but not limited to anxiolytic activity and analgesic activity).
The compounds of the present disclosure were dissolved in a mixture of Pharmasolve™ (N-methyl-2-pyrrolidone (NMP)) and were injected i.p. 15 min. before the behavioral test. For each compound, injections were administered at different dose levels (e.g., 0.3, 1, 3, 10 and 30 mg per kg (mpk)). A compound's minimal effective dose (MED; see Table 3) is a measure of the compound's potency. The MED was defined as the dose (in mpk) having 50% or more total activity in SmartCube®. For each behavioral effect measured, results at the MED are presented. CNS activities of the compounds were recorded (see Table 2). In Table 1, a key to the percent probabilities (probability×100) for each behavioral effect (“X”) are defined provided, where LOQ is the limit of quantification.

Regarding `c1ccc2c(c1)C1CCC2N1C1CCCC1` [Compound 43, 11-Cyclopentyl-11-azatricyclo[6.2.1.0^2,7]undeca-2,4,6-triene hydrochloride], the minimal effective dose lay in the range of 10 to 30 mg/kg; the “AD: antidepressant, percent probability” value is “++++ (50% ≤ X <1 00%)”; the “AG: analgesic, percent probability” value is listed as “+ (LOQ ≤ X < 5%)”; the “AP: antipsychotic, percent probability” value was “+ (LOQ ≤ X < 5%)”. Besides, the “AX: anxiolytic, percent probability” value is “++ (5% ≤ X < 25%)”; the “CE: cognitive enhancer, percent probability” value is “+ (LOQ ≤ X < 5%)”; the “HA: hallucinogenic, percent probability” value was “+ (LOQ ≤ X < 5%)”; the “MS: mood stabilizer, percent probability” value is reported as “+ (LOQ ≤ X < 5%)”. In addition, the “PS, percent probability” value was “++ (5% ≤ X < 25%)”; the “SD: sedative hypnotic, percent probability” value (“SD … percent probability” for short) was “+ (LOQ ≤ X < 5%)”; the “SE: side effects, percent probability” value is given as “+ (LOQ ≤ X < 5%)”; the “UN: uncharacterized CNS activity, percent probability” value (“UN … percent probability” for short) is “++ (5% ≤ X < 25%)”. Besides, the “XG: anxiogenic, percent probability” value is “+ (LOQ ≤ X < 5%)”.
As to `CC1CC2c3ccccc3C1N2C(C)C` (stereo not shown) [Compound 51, 9-Methyl-11-(propan-2-yl)-11-azatricyclo[6.2.1.0^2,7]undeca-2,4,6-tri ene hydrochloride], the minimal effective dose lay in the range of 1 to 10 mg/kg; the “AD: antidepressant, percent probability” value was “++++ (50% ≤ X <1 00%)”; the “AG: analgesic, percent probability” value is on record as “+ (LOQ ≤ X < 5%)”; the “AP: antipsychotic, percent probability” value is “+ (LOQ ≤ X < 5%)”. For the same compound, the “AX: anxiolytic, percent probability” value is listed as “++ (5% ≤ X < 25%)”; the “CE: cognitive enhancer, percent probability” value is listed as “+ (LOQ ≤ X < 5%)”; the “HA: hallucinogenic, percent probability” value is listed as “++ (5% ≤ X < 25%)”; the “MS: mood stabilizer, percent probability” value is recorded as “+ (LOQ ≤ X < 5%)”. The “PS, percent probability” value is listed as “++ (5% ≤ X < 25%)”; the “SD … percent probability” value is on record as “+ (LOQ ≤ X < 5%)”; the “SE: side effects, percent probability” value is listed as “+ (LOQ ≤ X < 5%)”; the “UN … percent probability” value is “+ (LOQ ≤ X < 5%)”. Besides, the “XG: anxiogenic, percent probability” value was “+ (LOQ ≤ X < 5%)”.
Turning to `CC1C2NC(c3ccccc32)C1C` (stereo not shown) [Compound 48, 9,10-Dimethyl-11-azatricyclo[6.2.1.0^2,7]undeca-2,4,6-triene hydrochloride], the minimal effective dose was in the range of 10 to 30 mg/kg; the “AD: antidepressant, percent probability” value is reported as “++ (5% ≤ X < 25%)”; the “AG: analgesic, percent probability” value is “+ (LOQ ≤ X < 5%)”; the “AP: antipsychotic, percent probability” value was “+ (LOQ ≤ X < 5%)”. Also, the “AX: anxiolytic, percent probability” value is “++ (5% ≤ X < 25%)”; the “CE: cognitive enhancer, percent probability” value is “++++ (50% ≤ X <1 00%)”; the “HA: hallucinogenic, percent probability” value is given as “++ (5% ≤ X < 25%)”; the “MS: mood stabilizer, percent probability” value is listed as “+ (LOQ ≤ X < 5%)”. Moreover, the “PS, percent probability” value is listed as “++ (5% ≤ X < 25%)”; the “SD … percent probability” value is reported as “+ (LOQ ≤ X < 5%)”; the “SE: side effects, percent probability” value is “+ (LOQ ≤ X < 5%)”; the “UN … percent probability” value is “+ (LOQ ≤ X < 5%)”. Further, the “XG: anxiogenic, percent probability” value is listed as “+ (LOQ ≤ X < 5%)”.
For `CC(C)N1C2CCC1c1cc(Cl)ccc12` (stereo not shown) [Compound 28, 4-Chloro-11-(propan-2-yl)-11-azatricyclo[6.2.1.0^2,7]undeca-2,4,6-triene hydrochloride], the minimal effective dose is over 30 mg/kg; the “AD: antidepressant, percent probability” value is recorded as “+++ (25% ≤ X < 50%)”; the “AG: analgesic, percent probability” value is “+ (LOQ ≤ X < 5%)”; the “AP: antipsychotic, percent probability” value is reported as “+ (LOQ ≤ X < 5%)”. In addition, the “AX: anxiolytic, percent probability” value is given as “++ (5% ≤ X < 25%)”; the “CE: cognitive enhancer, percent probability” value was “+ (LOQ ≤ X < 5%)”; the “HA: hallucinogenic, percent probability” value was “+ (LOQ ≤ X < 5%)”; the “MS: mood stabilizer, percent probability” value is “+ (LOQ ≤ X < 5%)”. Moreover, the “PS, percent probability” value is on record as “+ (LOQ ≤ X < 5%)”; the “SD … percent probability” value is recorded as “+ (LOQ ≤ X < 5%)”; the “SE: side effects, percent probability” value was “++ (5% ≤ X < 25%)”; the “UN … percent probability” value is recorded as “++ (5% ≤ X < 25%)”. For the same compound, the “XG: anxiogenic, percent probability” value was “+ (LOQ ≤ X < 5%)”.
Regarding `c1ccc2c(c1)C1CCC2N1C1CC1` [Compound 45, 11-Cyclopropyl-11-azatricyclo[6.2.1.0^2,7]undeca-2,4,6-triene hydrochloride], the minimal effective dose fell in the range of 10 to 30 mg/kg; the “AD: antidepressant, percent probability” value is “++ (5% ≤ X < 25%)”; the “AG: analgesic, percent probability” value is “++ (5% ≤ X < 25%)”; the “AP: antipsychotic, percent probability” value was “++ (5% ≤ X < 25%)”. Further, the “AX: anxiolytic, percent probability” value was “++ (5% ≤ X < 25%)”; the “CE: cognitive enhancer, percent probability” value is listed as “++ (5% ≤ X < 25%)”; the “HA: hallucinogenic, percent probability” value is listed as “+ (LOQ ≤ X < 5%)”; the “MS: mood stabilizer, percent probability” value was “+ (LOQ ≤ X < 5%)”. In addition, the “PS, percent probability” value is “+ (LOQ ≤ X < 5%)”; the “SD … percent probability” value was “+ (LOQ ≤ X < 5%)”; the “SE: side effects, percent probability” value was “+ (LOQ ≤ X < 5%)”; the “UN … percent probability” value is reported as “++ (5% ≤ X < 25%)”. Moreover, the “XG: anxiogenic, percent probability” value is recorded as “+ (LOQ ≤ X < 5%)”.
For `CC/C=C/CN1C2CCC1c1ccccc12` [Compound 10, 11-[(2E)-Pent-2-en-1-yl]-11-azatricyclo[6.2.1.0^2,7]undeca-2,4,6-triene hydrochloride], the minimal effective dose was over 30 mg/kg; the “AD: antidepressant, percent probability” value is “+ (LOQ ≤ X < 5%)”; the “AG: analgesic, percent probability” value is listed as “+ (LOQ ≤ X < 5%)”; the “AP: antipsychotic, percent probability” value is given as “+ (LOQ ≤ X < 5%)”. The “AX: anxiolytic, percent probability” value is recorded as “++ (5% ≤ X < 25%)”; the “CE: cognitive enhancer, percent probability” value is “+ (LOQ ≤ X < 5%)”; the “HA: hallucinogenic, percent probability” value is reported as “+ (LOQ ≤ X < 5%)”; the “MS: mood stabilizer, percent probability” value is given as “+ (LOQ ≤ X < 5%)”. Also, the “PS, percent probability” value is recorded as “+ (LOQ ≤ X < 5%)”; the “SD … percent probability” value is reported as “+ (LOQ ≤ X < 5%)”; the “SE: side effects, percent probability” value is “+ (LOQ ≤ X < 5%)”; the “UN … percent probability” value is “+ (LOQ ≤ X < 5%)”. Also, the “XG: anxiogenic, percent probability” value is reported as “+ (LOQ ≤ X < 5%)”.
On to `Clc1cccc2c1C1CCC2N1` (stereo not shown) [Compound 13, 3-Chloro-11-azatricyclo[6.2.1.0^2,7]undeca-2,4,6-triene hydrochloride], for which the minimal effective dose is over 30 mg/kg; the “AD: antidepressant, percent probability” value is “+ (LOQ ≤ X < 5%)”; the “AG: analgesic, percent probability” value was “+ (LOQ ≤ X < 5%)”; the “AP: antipsychotic, percent probability” value was “+ (LOQ ≤ X < 5%)”. The “AX: anxiolytic, percent probability” value is on record as “++ (5% ≤ X < 25%)”; the “CE: cognitive enhancer, percent probability” value is given as “++ (5% ≤ X < 25%)”; the “HA: hallucinogenic, percent probability” value is reported as “+ (LOQ ≤ X < 5%)”; the “MS: mood stabilizer, percent probability” value was “+ (LOQ ≤ X < 5%)”. Besides, the “PS, percent probability” value is “+ (LOQ ≤ X < 5%)”; the “SD … percent probability” value was “+ (LOQ ≤ X < 5%)”; the “SE: side effects, percent probability” value is “+ (LOQ ≤ X < 5%)”; the “UN … percent probability” value was “+++ (25% ≤ X < 50%)”. Further, the “XG: anxiogenic, percent probability” value is on record as “+ (LOQ ≤ X < 5%)”.

What is called minimal effective dose is the smallest amount tested that counted as effective.
